Patent publication US20240209355A1, “NUCLEIC ACID BINDING PROTEIN FORMULATIONS AND USES THEREOF” (Spotlight Therapeutics, priority 2020, published 2024)
Several values for one entry are separate records, joined by “and”; a condition that tells them apart may be missing. Identical values can stand only once.

What was measured:
dsDNA target = assay: In vitro DNA cleavage of TAGE agent RNPs with re-folded or unfolded sgRNA; assay type: biochemical; conditions: PBS, relative to Cas9(C80A)-2×NLS
Description: To assess DNA cleavage, 100 nM of each Cas9 RNP was incubated for 30 minutes at 37° C. with 100 nM of a dsDNA target. DNA cleavage was normalized to DNA cleavage achieved through incubation in buffer alone (i.e., untreated RNP). 1 μl of 20 mg/ml proteinase K was added to the reaction and incubated for 15 minutes at 50° C. The quenching reaction was held at 4° C. prior to separation on a Fragment Analyzer capillary electrophoresis (CE) instrument. 2 μl of the reaction was diluted with 22 μl of TE buffer and analyzed by capillary electrophoresis, per the manufacturer's recommendations. Cleavage reactions were run in triplicate, and background was subtracted from the band intensities. Percent cleavage was quantified with the following equation: % cleavage=(total mass cleaved product)/(total mass of substrate). The results are expressed as % cleavage relative to untreated RNP.
Next, the impact of re-folded gRNA on the in vitro DNA cleavage activity of TAGE agent RNPs was assessed.

primary human T cells [1] = assay: Editing by TAGE after pre-incubation of cells with inhibitors, loss of surface CD47 by flow cytometry; assay type: cell-based; conditions: 30 min pre-incubation; for editing of primary T cells by TAGE: DMA, EIPA 100 μM, Cyto D 20 μM, Lat A 10 μM, 3 μM TAGE26, 0.35 μM AB27-TAGE26 or AB2-TAGE26; for editing of primary T cells by an antibody TAGE: Dynasore 80 μM
Description: Antibodies were conjugated to Cas9 using the SpyTag2/SpyCatcher system and a guide RNA targeting CD47 was associated with the respective TAGE agents to form RNPs. Primary human T cells were pre-incubated with the indicated drug for 30 minutes. Then, RNPs were added to the cells at the indicated concentration and co-incubated for an additional hour. The cells were washed after one hour to remove inhibitors and RNPs. The percentage of cells that were edited under each condition was measured using a phenotypic readout detecting the loss of surface CD47 by flow cytometry.
Each data point represents a biological replicate. For each group, the horizontal line represents the mean and the error bars represent the standard deviation of the mean. With respect to the descriptions in FIG. 18, NT guide is a TAGE with non-targeting guide RNA; MeOH is methanol (a control for DMA and EIPA; used at 0.5% v/v; DMSO is dimethyl sulfoxide, a control for Cyto D and Lat A (used at 1% v/v); DMA is 5-(N,N-dimethyl)-amiloride, an inhibitor of NHE1 (used at 100 μM); EIPA is 5-(N-ethyl-N-isopropyl)-amiloride, an inhibitor of NHE1, (used at 100 μM); Cyto D is cytochalasin D, an inhibitor of F-actin polymerization (used at 20 μM); and Lat A is latrunculin A, an inhibitor of F-actin polymerization (used at 10 μM).
Antibodies were conjugated to Cas9 using the SpyTag/SpyCatcher system and a guide RNA targeting CD47 was associated with the respective TAGE agents to form an RNP. Primary human T cells were pre-incubated with the indicated drug (nystatin or Dynasore) for 30 minutes. Then, RNPs were added to cells at the indicated concentration and co-incubated for an additional hour. The cells were washed after one hour to remove inhibitors and RNPs. The percentage of cells that were edited under each condition was measured using a phenotypic readout detecting the loss of surface CD47 by flow cytometry. Each data point represents a biological replicate. For each group, the horizontal line represents the mean and the error bars represent the standard deviation of the mean. NT guide stood for TAGE with non-targeting guide RNA. DMSO is dimethylsulfoxide, a control for nystatin and Dynasore, which was used at 2% v/v. Dynasore is an inhibitor of dynamin, which was used at 80 μM. Nystatin was used at 108 μM.

T cells = assay: Ex vivo editing with chloroquine, loss of surface CD47 by flow cytometry; assay type: cell-based, human; conditions: chloroquine 10, 30 or 100 μM for 24 hours after 1 hour RNP co-incubation with PBMCs, vs 0 μM
Description: FIG. 9 graphically depicts the results of an ex vivo editing assay in which TAGE agents including Cas9-2×NLS:sgBFP, 4×NLS-Cas9-2×NLS, Cas9-2×NLS-SpyCatcher-4×NLS, or IL-2[-SpyTag]:Cas9-2×NLS-SpyCatcher-4×NLS were co-incubated with primary human T cells and assessed for editing in buffers including different levels of chloroquine (0 μM, 10 μM, 30 μM, or 100 μM). A guide RNA targeting CD47 was associated with the respective TAGE agents to form ribonucleoproteins, and the ribonucleoproteins were co-incubated with T cells to test for editing. Editing was measured using a phenotypic readout measuring the loss of surface CD47 using flow cytometry.
In this example, the impact of chloroquine on ex vivo editing by TAGE agents was assessed. RNP TAGE agents including Cas9-2×NLS:sgBFP, 4×NLS-Cas9-2×NLS, Cas9-2×NLS-SpyCatcher-4×NLS, or IL-2-SpyTag:Cas9-2×NLS-SpyCatcher-4×NLS. A guide RNA targeting CD47 (or a non-targeting control, sgBFP) was associated with the respective TAGE agents to form the ribonucleoproteins. The RNPs were co-incubated with PBMCs for 1 hour followed by incubation with 0 μM chloroquine, 10 μM chloroquine, 30 μM chloroquine, or 100 μM chloroquine for 24 hours. The percentage of T cells that were edited by each TAGE was measured using a phenotypic readout detecting the loss of surface CD47 by flow cytometry.

primary human T cells [2] = assay: Ex vivo editing by co-incubation in buffers with additives, loss of surface CD47 by flow cytometry; assay type: cell-based; conditions: for genome editing (percentage of edited T cells): 1 hour, increasing NaCl (185-400 mM) and/or glycerol (1-15% w/v); for combined effect of glycerol and sodium chloride on genome editing: e.g. 300 mM NaCl with 12.5% glycerol; for TAGE editing efficacy: additive in combination with NaCl
Description: In this example, the impact of glycerol and salt on ex vivo editing by TAGE agents was assessed. Ribonucleoproteins were prepared from TAGE agents including 4×NLS-Cas9-2×NLS. A guide RNA targeting CD47 was associated with the respective TAGE agents to form ribonucleoproteins. […] The cells were washed after one hour to remove the additives and RNPs. The percentage of T cells that were edited under each condition was measured using a phenotypic readout detecting the loss of surface CD47 by flow cytometry. Additionally, the levels of live cells per mL 24 hours after co-incubation in the indicated buffer was assessed for each buffer condition.
In this example, the impact of salt and various polyols (e.g., sugar alcohols) or sugar on ex vivo editing by TAGE agents was assessed. Ribonucleoproteins were prepared from TAGE agents including 4×NLS-Cas9-2×NLS. A guide RNA targeting CD47 was associated with the respective TAGE agents to form ribonucleoproteins. […] Buffers having different salt concentrations (185 mM NaCl or 300 mM NaCl) and sugar alcohol or sugar concentrations ([…], 0.8 M, 1.2 M, 1.6 M, 2.0 M, or 2.4 M) were assessed. The cells were washed after one hour to remove additives and RNPs. The percentage of cells that were edited under each condition was measured using a phenotypic readout detecting the loss of surface CD47 by flow cytometry. Additionally, the levels of live cells per mL 24 hours after co-incubation in the indicated buffer was assessed for each buffer condition.
In this example, the impact of a cationic polymer (e.g., protamine) with or without glycerol on ex vivo editing by RNP TAGE agents was assessed. Ribonucleoproteins were prepared from TAGE agents including 4×NLS-Cas9-2×NLS or AsCas12a. A guide RNA targeting CD47 was associated with the respective TAGE agents to form ribonucleoproteins. […] The cells were washed after one hour to remove additives and RNPs. The percentage of T cells that were edited under each condition was measured using a phenotypic readout detecting the loss of surface CD47 by flow cytometry. Additionally, the levels of light scattering at 340 nm was assessed to detect aggregate formation. […]

primary human T cells [3] = assay: Editing by antibody TAGE or CPP-TAGE in T cell media with sugar, sugar alcohol or salt additive, loss of surface CD47 by flow cytometry; assay type: cell-based
Description: RNPs at the indicated concentration were co-incubated with primary human T cells for 1 hour in buffer including 0.5 M sucrose. The cells were washed after one hour to remove additives and RNPs. The editing percentage under each condition was measured using a phenotypic readout detecting the loss of surface CD47 by flow cytometry.
Five different TAGE agent were tested. […] The cells were washed after one hour to remove additives and RNPs. The percentage of cells that were edited under each condition was measured using a phenotypic readout detecting the loss of surface CD47 by flow cytometry. Each data point represents the mean of biological triplicates, and the error bars represent the standard deviation of the mean.
The cells were washed after one hour to remove additives and RNPs. The percentage of cells that were edited under each condition was measured using a phenotypic readout detecting the loss of surface CD47 by flow cytometry. Each data point represents a biological replicate. […]
RNP at the indicated concentration was co-incubated with primary human T cells for 1 hour in T cell media with no additive (Baseline) or in T cell media with 0.5 M sucrose. […] The percentage of cells that were edited under each condition was measured using a phenotypic readout detecting the loss of surface CD47 by flow cytometry. […]

[4] = Light scattering at 340 nm to detect aggregate formation with protamine; assay type: physicochemical; conditions: protamine in buffer
Description: In this example, the impact of a cationic polymer (e.g., protamine) with or without glycerol on ex vivo editing by RNP TAGE agents was assessed. Ribonucleoproteins were prepared from TAGE agents including 4×NLS-Cas9-2×NLS or AsCas12a. A guide RNA targeting CD47 was associated with the respective TAGE agents to form ribonucleoproteins. […] The cells were washed after one hour to remove additives and RNPs. The percentage of T cells that were edited under each condition was measured using a phenotypic readout detecting the loss of surface CD47 by flow cytometry. Additionally, the levels of light scattering at 340 nm was assessed to detect aggregate formation.

For “4×NLS-Cas9(C80A)-2×NLS: TAGE agent: Cas9(C80A) with four N-terminal and two C-terminal NLS”, the DNA cleavage activity (dsDNA target) was “reduced activity in PBS”.

In the case of C=C1[C@@H](C)[C@H]2[C@H](Cc3ccccc3)NC(=O)[C@]23[C@H](OC(C)=O)/C=C/[C@@](C)(O)C(=O)[C@@H](C)C/C=C/[C@H]3[C@@H]1O [Cyto D, cytochalasin D], the “editing of primary T cells by TAGE” value (primary human T cells [1]) is reported as “decreased”.

In the case of CN(C)c1nc(N)c(C(=O)NC(=N)N)nc1Cl [DMA, 5-(N,N-dimethyl)-amiloride], the “editing of primary T cells by TAGE” value (primary human T cells [1]) is reported as “increased”.

In the case of CCN(c1nc(N)c(C(=O)N=C(N)N)nc1Cl)C(C)C [EIPA, 5-(N-ethyl-N-isopropyl)-amiloride], the “editing of primary T cells by TAGE” value (primary human T cells [1]) is reported as “increased”.

With C/C1=C/C(=O)O[C@@H]2C[C@@H](CC[C@H](C)/C=C\C=C\CC1)O[C@@](O)([C@@H]1CSC(=O)N1)C2 [Lat A, latrunculin A] the “editing of primary T cells by TAGE” value (primary human T cells [1]) was “decreased”.

For CCN(CC)CCCC(C)Nc1ccnc2cc(Cl)ccc12 (stereo not shown) [chloroquine], the “editing of T cells by TAGE RNPs” value (T cells) was “increased editing of T cells”.

In the case of O=C(N/N=C/c1ccc(O)c(O)c1)c1cc2ccccc2cc1O [dynasore, Dynasore], the “editing of primary T cells by an antibody TAGE” value (primary human T cells [1]; nystatin 108 μM) is reported as “not increased”.

In the case of OCC(O)CO [glycerol], the “genome editing (percentage of edited T cells)” value (primary human T cells [2]; 3.75 μM 4×NLS-Cas9-2×NLS RNP) is reported as “increased genome editing in cells”, the “combined effect of glycerol and sodium chloride on genome editing” value (primary human T cells [2]; 3.75 μM 4×NLS-Cas9-2×NLS RNP) is reported as “synergistic effect on genome editing” and the TAGE editing efficacy (primary human T cells [2]; 3.75 μM 4×NLS-Cas9-2×NLS RNP) is reported as “can increase TAGE editing efficacy”. For the same compound, the “glycerol concentration at peak editing ex vivo” value (primary human T cells [2]; human T cells, depending on the TAGE and the salt concentration) was 7-10% and 15-16%.

For C[C@@H]1[C@H](O)[C@@H](C)/C=C/C=C/CC/C=C/C=C/C=C/C=C/C(O[C@H]2O[C@H](C)[C@@H](O)[C@H](N)[C@@H]2O)CC2O[C@](O)(CC(O)C(O)CCC(O)CC(O)CC(O)CC(=O)O[C@H]1C)CC(O)C2C(=O)O (stereo partly shown) [nystatin], the “editing by TAGE containing a non-targeting antibody (AB27-TAGE26)” value (primary human T cells [1]; nystatin 108 μM) was “did not increase editing” and the “editing of primary T cells by an antibody TAGE” value (primary human T cells [1]; nystatin 108 μM) was “increased”.

With [Cl-].[Na+] [sodium chloride] the “genome editing (percentage of edited T cells)” value (primary human T cells [2]; 3.75 μM 4×NLS-Cas9-2×NLS RNP) was “increased genome editing in cells” and the “combined effect of glycerol and sodium chloride on genome editing” value (primary human T cells [2]; 3.75 μM 4×NLS-Cas9-2×NLS RNP) was “synergistic effect on genome editing”.

In the case of OC[C@H]1O[C@@](CO)(O[C@H]2O[C@H](CO)[C@@H](O)[C@H](O)[C@H]2O)[C@@H](O)[C@@H]1O [sucrose], the TAGE editing efficacy (primary human T cells [2]; 3.75 μM 4×NLS-Cas9-2×NLS RNP) is reported as “can increase TAGE editing efficacy”, the “lowest TAGE concentration at which editing is enabled” value (primary human T cells [3]; 0.5 M sucrose) is reported as 0.7 nM and the “effect of additive on editing” value (primary human T cells [3]; 0.5 M sucrose as formulation additive) is reported as “improves editing”.

For OC[C@@H](O)[C@H](O)[C@@H](O)CO [xylitol], the “percentage of edited cells” value (primary human T cells [2]; 3.75 μM 4×NLS-Cas9-2×NLS RNP, 300 mM NaCl and ≥1 M xylitol) was “over 50%” and the TAGE editing efficacy (primary human T cells [2]; 3.75 μM 4×NLS-Cas9-2×NLS RNP) was “can increase TAGE editing efficacy”.

For poly-glutamic acid [PGA], the editing by co-incubation (primary human T cells [2]; 3.75 μM Cas9 or AsCas12a RNP, PGA 1500-5500 Da or 15,000 Da, also at lower concentrations) was “inhibited editing by co-incubation”.

For protamine, the “editing by Cas12a” value (primary human T cells [2]; protamine in buffer) was “limited benefits for Cas12a editing”, the “editing by 4×NLS-Cas9-2×NLS” value (primary human T cells [2]; protamine in buffer, low glycerol concentrations) was “increased editing” and the “aggregation of Cas12a (340 nm light scattering)” value [4] was “did not cause appreciable Cas12a aggregation”. For the same compound, the “aggregation of 4×NLS-Cas9-2×NLS (340 nm light scattering)” value ([4]; low glycerol concentrations) was “caused aggregation”.
